According to PubChem BioAssay (NCI):
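At the GI50, growth is halved. The concentration for full growth arrest is given as TGI.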

Key:
Assay in all cases: inhibition of tumour cell growth, NCI panel, 384-well format
HT29 colon = test system: HT29 colon
ACHN renal = test system: ACHN renal
RXF 393 renal = test system: RXF 393 renal
RPMI-8226 leukemia = test system: RPMI-8226 leukemia
A549 NSCLC = test system: A549 NSCLC
SF-268 CNS = test system: SF-268 CNS
OVCAR-8 ovarian = test system: OVCAR-8 ovarian
M14 melanoma = test system: M14 melanoma
HCT-15 colon = test system: HCT-15 colon
MCF7 breast = test system: MCF7 breast
HCC-2998 colon = test system: HCC-2998 colon
UO-31 renal = test system: UO-31 renal
SNB-75 CNS = test system: SNB-75 CNS

Question: `CC#CC(=O)N1CC[C@@H](n2c(=O)n(-c3ccc(Oc4ccccc4)cc3)c3c(N)ncnc32)C1` was tested. Which GI50 (HT29 colon) did it give?
Answer: The GI50 was 32.2 µM.

Question: What about the TGI (HT29 colon) of the same compound?
Answer: Its TGI is greater than 100 µM.

Question: What about the GI50 (ACHN renal) of the same compound?
Answer: Its GI50 is 31.6 µM.

Question: And the TGI (ACHN renal)?
Answer: The TGI was greater than 100 µM.

Question: What about the GI50 (RXF 393 renal) of the same compound?
Answer: Its GI50 is 13.4 µM.

Question: And the TGI (RXF 393 renal)?
Answer: The TGI was 32.2 µM.

Question: And the GI50 (RPMI-8226 leukemia)?
Answer: The GI50 was 7.89 µM.

Question: And the TGI (RPMI-8226 leukemia)?
Answer: Its TGI is 23 µM.

Question: What about the GI50 (A549 NSCLC) of the same compound?
Answer: Its GI50 is 34.8 µM.

Question: And the TGI (A549 NSCLC)?
Answer: Its TGI is greater than 100 µM.

Question: What about the GI50 (SF-268 CNS) of the same compound?
Answer: Its GI50 is 25.1 µM.

Question: And the TGI (SF-268 CNS)?
Answer: Its TGI is greater than 65 µM.

Question: What about the GI50 (OVCAR-8 ovarian) of the same compound?
Answer: Its GI50 is 27.6 µM.

Question: And the TGI (OVCAR-8 ovarian)?
Answer: The TGI was greater than 100 µM.

Question: And the GI50 (M14 melanoma)?
Answer: The GI50 was 22.7 µM.

Question: What about the TGI (M14 melanoma) of the same compound?
Answer: Its TGI is 50.1 µM.

Question: And the GI50 (HCT-15 colon)?
Answer: The GI50 was 28.6 µM.

Question: And the TGI (HCT-15 colon)?
Answer: The TGI was greater than 89.5 µM.

Question: What about the TGI (MCF7 breast) of the same compound?
Answer: The TGI was 80.6 µM.

Question: What about the GI50 (HCC-2998 colon) of the same compound?
Answer: The GI50 was 24.5 µM.

Question: What about the TGI (HCC-2998 colon) of the same compound?
Answer: Its TGI is 49.4 µM.

Question: And the GI50 (UO-31 renal)?
Answer: The GI50 was 31.8 µM.

Question: What about the TGI (UO-31 renal) of the same compound?
Answer: The TGI was greater than 100 µM.

Question: What about the GI50 (SNB-75 CNS) of the same compound?
Answer: Its GI50 is 28.6 µM.

Question: And the TGI (SNB-75 CNS)?
Answer: Its TGI is 77.2 µM.
